Assay results reported in ChEMBL document CHEMBL3046441, “Importance of physicochemical properties for the design of new pesticides” (J Agric Food Chem, 2011).

Legend:
[1] = target: T1, Nicotinic acetylcholine receptor alpha8 subunit (Periplaneta americana) (UniProt H6TY12); experiment: Neuroblocking activity in Periplaneta americana (American cockroach) nicotinic acetylcholine receptor in abdominal fifth and sixth ganglia nerve assessed as neuroblocking concentration by neurophysiological test
T1 sequence (whole entry): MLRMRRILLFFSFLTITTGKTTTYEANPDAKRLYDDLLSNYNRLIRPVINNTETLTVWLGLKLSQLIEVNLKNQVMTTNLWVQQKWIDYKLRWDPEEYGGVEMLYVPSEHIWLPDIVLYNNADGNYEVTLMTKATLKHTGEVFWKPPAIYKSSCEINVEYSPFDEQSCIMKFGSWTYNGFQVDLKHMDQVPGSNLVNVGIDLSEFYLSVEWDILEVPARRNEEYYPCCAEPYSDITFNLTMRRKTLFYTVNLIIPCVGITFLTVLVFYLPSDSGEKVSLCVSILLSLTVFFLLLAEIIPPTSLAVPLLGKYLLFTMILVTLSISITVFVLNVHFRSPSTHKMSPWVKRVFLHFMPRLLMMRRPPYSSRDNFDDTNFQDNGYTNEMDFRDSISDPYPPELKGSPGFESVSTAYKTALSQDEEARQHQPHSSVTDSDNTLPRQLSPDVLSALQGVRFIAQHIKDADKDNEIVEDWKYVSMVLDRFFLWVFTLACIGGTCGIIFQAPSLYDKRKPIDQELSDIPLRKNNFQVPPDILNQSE

Periplaneta americana = experiment: Toxic effect in Periplaneta americana (American cockroach) assessed as paralyzed insects after 24 hr of abdomen compound injection by insecticidal assay; type: functional
[2] = Apparent hydrophobicity, log D of the compound in Octanol-buffer; type: physicochemical; conditions: for logD: octanol/buffer; for logD(app): octanol/water
[3] = Dissociation constant, pKa of the compound at pH 7.3; type: physicochemical
[4] = Hydrophobicity, log P of the compound in octanol-water by shaking-flask method; type: physicochemical

| Structure (SMILES) | logD [2] | pKa [3] | further results |
| --- | --- | --- | --- |
| O=[N+]([O-])/N=c1\[nH]ccn1Cc1cnc(Cl)s1 | – | – | log(1/BC) [1]: 4.61; log(1/MLD) (Periplaneta americana): 8.82 |
| CC(=O)Nc1ccc(OCC(O)CNC(C)C)cc1 (stereo not given) [PRACTOLOL] | -0.62 | 2.1 | – |
| COCCc1ccc(OCC(O)CNC(C)C)cc1 (stereo not given) [METOPROLOL] | 0.24 | – | – |
| CC(C)(C)NCC(O)COc1cccc2c1CC(O)C(O)C2 (stereo not given) [NADOLOL] | -0.88 | 2.37 | – |
| CC(=O)Nc1ccc(O)cc1 [ACETAMINOPHEN] | – | 0 | – |
| Cc1cc(C)cc(C(=O)N(NC(=O)c2ccc3c(c2C)CCCO3)C(C)(C)C)c1 [CHROMAFENOZIDE] | 2.7 | – | – |
| O=[N+]([O-])/C=C1\CCCN1Cc1ccc(Cl)nc1 | – | – | log(1/BC) [1]: 6.43; log(1/MLD) (Periplaneta americana): 10.44 |
| Cc1c(F)c(F)c(COC(=O)[C@@H]2[C@H](/C=C(\Cl)C(F)(F)F)C2(C)C)c(F)c1F [TEFLUTHRIN] | – | – | logP [4]: 6 |
| CCCC(=O)Nc1ccc(OCC(O)CNC(C)C)c(C(C)=O)c1 (stereo not given) [ACEBUTOLOL] | – | 2.11 | – |
| C[C@]12C[C@H](O)[C@H]3[C@@H](CCC4=CC(=O)CC[C@@]43C)[C@@H]1CC[C@@H]2C(=O)CO [CORTICOSTERONE] | 1.94 | 0 | – |
| CCNc1nc(Cl)nc(NC(C)C)n1 [ATRAZINE] | 2.61 | – | – |
| COc1cccc(C(=O)NN(C(=O)c2cc(C)cc(C)c2)C(C)(C)C)c1C [METHOXYFENOZIDE] | 3.7 | 0 | – |
| CN1CCN(Cc2ccc(Cl)nc2)/C1=N/[N+](=O)[O-] | – | – | log(1/BC) [1]: 3.81; log(1/MLD) (Periplaneta americana): 8.62 |
| CCOP(=S)(NC(C)CC)Oc1cc(C)ccc1[N+](=O)[O-] (stereo not given) [BUTAMIFOS] | 4.62 | 0 | – |
| O=[N+]([O-])/N=c1\sccn1Cc1cnc(Cl)s1 | – | – | log(1/BC) [1]: 5.79; log(1/MLD) (Periplaneta americana): 8.85 |
| O=[N+]([O-])/N=c1\ccccn1Cc1cnc(Cl)s1 | – | – | log(1/BC) [1]: 5.75; log(1/MLD) (Periplaneta americana): 9.74 |
| CCCN(CCC)c1c([N+](=O)[O-])cc(C(F)(F)F)cc1[N+](=O)[O-] [TRIFLURALIN] | – | – | logP [4]: 5.07 |
| O=[N+]([O-])/N=C1\SCCN1Cc1cnc(Cl)s1 | – | – | log(1/BC) [1]: 6; log(1/MLD) (Periplaneta americana): 8.91 |
| C[C@]12C=CC(=O)C=C1CC[C@@H]1[C@@H]2[C@@H](O)C[C@@]2(C)[C@H]1CC[C@]2(O)C(=O)CO [PREDNISOLONE] | – | 0 | – |
| O=[N+]([O-])/N=C1\NCCCN1Cc1ccc(Cl)nc1 | – | – | log(1/BC) [1]: 5.35; log(1/MLD) (Periplaneta americana): 10.12 |
| CC(C)N1C(=O)c2ccccc2NS1(=O)=O [BENTAZON] | – | – | logP [4]: 2.8 |
| CC(C)c1cc(NC(=O)N(C)C)no1 [ISOURON] | – | – | logP [4]: 1.98 |

| Structure (SMILES) | logD [2] | pKa [3] | further results |
| --- | --- | --- | --- |
| O=[N+]([O-])/C=C1\NCCN1Cc1ccc(Cl)nc1 | – | – | log(1/BC) [1]: 5.02; log(1/MLD) (Periplaneta americana): 10.19 |
| COP1(=S)OCc2ccccc2O1 (stereo not given) [SALITHION] | 2.67 | 0 | – |
| CCn1cc(C(=O)O)c(=O)c2cc(F)c(N3CCNCC3)cc21 [NORFLOXACIN] | – | 2.08 | logD(app) [2]: -2.42 |
| CNC(=C[N+](=O)[O-])NCCSCc1ccc(CN(C)C)o1 [RANITIDINE] | – | 0.88 | logD(app) [2]: -0.32 |
| O=C1NC(=O)C(c2ccccc2)(c2ccccc2)N1 [PHENYTOIN] | 2.26 | – | – |
| COc1nn(CSP(=S)(OC)OC)c(=O)s1 [METHIDATHION] | 2.5 | 0 | – |
| O=[N+]([O-])/N=C1\NCCN1Cc1ccc(Cl)nc1 [IMIDACLOPRID] | – | – | log(1/BC) [1]: 5.64; log(1/MLD) (Periplaneta americana): 10.15 |
| COP(=S)(OC)Oc1ccc([N+](=O)[O-])c(C)c1 [FENITROTHION] | 3.3 | 0 | – |
| CCOP(=S)(OCC)Oc1cc(C)nc(C(C)C)n1 [DIMPYLATE] | 3.3 | – | – |
| O=[N+]([O-])NC1=NCCN1Cc1ccc(Cl)nc1 [IMIDACLOPRID] | 0.59 | 0 | – |
| CN1CCN(CC(=O)N2c3ccccc3C(=O)Nc3cccnc32)CC1 [PIRENZEPINE] | – | 0.7 | logD(app) [2]: -0.37 |
| O=[N+]([O-])/N=C1\NCCN1Cc1cnc(Cl)s1 [IMIDACLOTHIZ] | – | – | log(1/BC) [1]: 5.97; log(1/MLD) (Periplaneta americana): 9.62 |
| O=[N+]([O-])Nc1nccn1Cc1ccc(Cl)nc1 [DEHYDROIMIDACLOPRID] | – | – | log(1/BC) [1]: 4.31; log(1/MLD) (Periplaneta americana): 8.72 |
| O=C(O)c1ccccc1O [SALICYLIC ACID] | -0.63 | – | – |
| CC(CCc1ccccc1)NCC(O)c1ccc(O)c(C(N)=O)c1 (stereo not given) [LABETALOL] | 1.68 | 2.1 | – |
| CCc1ccc(C(=O)NN(C(=O)c2cc(C)cc(C)c2)C(C)(C)C)cc1 [TEBUFENOZIDE] | – | 0 | – |
| O=[N+]([O-])/C=C1\SCCN1Cc1ccc(Cl)nc1 | – | – | log(1/BC) [1]: 6.19; log(1/MLD) (Periplaneta americana): 10.37 |
| O=c1ccc2ccccc2o1 [COUMARIN] | – | 0 | – |
| CC(C(=O)O)c1cccc(C(=O)c2ccccc2)c1 (stereo not given) [KETOPROFEN] | 1.1 | – | – |
| COP(=S)(OC)Oc1ccc(SC)c(C)c1 [FENTHION] | 4.09 | 0 | – |
| C[C@]12CC[C@H]3[C@@H](CCC4=CC(=O)CC[C@@]43C)[C@@H]1CC[C@@H]2O [TESTOSTERONE] | – | 0 | – |
| CN1CCN(Cc2ccc(Cl)nc2)/C1=C/[N+](=O)[O-] | – | – | log(1/BC) [1]: 3.84; log(1/MLD) (Periplaneta americana): 8.07 |

| Structure (SMILES) | logD [2] | pKa [3] | further results |
| --- | --- | --- | --- |
| CCC(C)c1ccccc1OC(=O)NC (stereo not given) [FENOBUCARB] | 2.78 | 0 | – |
| O=C(N[C@H](CO)[C@H](O)c1ccc([N+](=O)[O-])cc1)C(Cl)Cl [CHLORAMPHENICOL] | – | 0 | – |
| C[C@@H]1C[C@H]2[C@@H]3CCC4=CC(=O)C=C[C@]4(C)[C@@]3(F)[C@@H](O)C[C@]2(C)[C@@]1(O)C(=O)CO [DEXAMETHASONE] | 2.01 | 0 | – |
| CC(C)(C)N(NC(=O)c1ccc(Cl)cc1)C(=O)c1ccccc1 [HALOFENOZIDE] | 3.22 | 0 | – |
| C[C@]12CCC(=O)C=C1CC[C@@H]1[C@@H]2[C@@H](O)C[C@@]2(C)[C@H]1CC[C@]2(O)C(=O)CO [HYDROCORTISONE] | 1.61 | 0 | – |
| CCN(CC)C(=O)SCc1ccc(Cl)cc1 [THIOBENCARB] | 3.42 | 0 | – |
| O=[N+]([O-])/C=C1\NCCN1Cc1cnc(Cl)s1 | – | – | log(1/BC) [1]: 5.73; log(1/MLD) (Periplaneta americana): 10.24 |
| COc1ccc(CCN(C)CCCC(C#N)(c2ccc(OC)c(OC)c2)C(C)C)cc1OC (stereo not given) | – | 1.36 | – |
| CC(C)(C)N(NC(=O)c1ccccc1)C(=O)c1ccccc1 [RH-5849] | 2.45 | 0 | – |
| O=[N+]([O-])/N=c1\ccccn1Cc1ccc(Cl)nc1 | – | – | log(1/BC) [1]: 5.09; log(1/MLD) (Periplaneta americana): 9.99 |
| O=[N+]([O-])/N=c1\sccn1Cc1ccc(Cl)nc1 | – | – | log(1/BC) [1]: 5.68; log(1/MLD) (Periplaneta americana): 10.25 |
| CN1C(C(=O)Nc2ccccn2)=C(O)c2ccccc2S1(=O)=O [PIROXICAM] | 0.49 | – | – |
| CC(C)Cc1ccc(C(C)C(=O)O)cc1 (stereo not given) [IBUPROFEN] | 1.54 | – | – |
| Cc1cc(=O)n(-c2ccccc2)n1C [ANTIPYRINE] | – | 0 | – |
| Clc1cccc(Cl)c1N=C1NCCN1 [CLONIDINE] | 0.93 | 0.75 | – |
| C=CCOc1ccccc1OCC(O)CNC(C)C (stereo not given) [OXPRENOLOL] | 0.56 | 2.3 | – |
| COc1ccc([C@@H]2Sc3ccccc3N(CCN(C)C)C(=O)[C@@H]2OC(C)=O)cc1 [DILTIAZEM] | 2.29 | 0.76 | – |
| CCOC(=O)C(SP(=S)(OC)OC)c1ccccc1 (stereo not given) [PHENTHOATE] | 3.96 | 0 | logP [4]: 3.96 |
| C=CCc1ccccc1OCC(O)CNC(C)C (stereo not given) [ALPRENOLOL] | 1.35 | – | logP [4]: 2.89 |
| Cc1c(N(C)C)c(=O)n(-c2ccccc2)n1C [AMINOPYRINE] | – | 0 | – |
| O=[N+]([O-])/C=C1\CCCN1Cc1cnc(Cl)s1 | – | – | log(1/BC) [1]: 6.31; log(1/MLD) (Periplaneta americana): 10.06 |
| CC(C)NCC(O)COc1cccc2[nH]ccc12 (stereo not given) [PINDOLOL] | 0.25 | 2.24 | – |
